Results: article PMC6407917, “Identification of GSK3186899/DDD853651 as a Preclinical Development Candidate for the Treatment of Visceral Leishmaniasis” (Journal of Medicinal Chemistry, 2018)

Key:
Test in all cases: biochemical
Set-up in all cases: species or system HEK293/K-562/placenta mixed human extract; Kinobeads chemoproteomic competition binding, quantified by TMT LC-MS/MS, dose response up to 20 uM
BTK = BTK (Homo sapiens, UniProt Q06187)
DDR2 = DDR2 (Homo sapiens, UniProt Q16832)
EPHB3 = EPHB3 (Homo sapiens, UniProt P54753)
HIPK3 = HIPK3 (Homo sapiens, UniProt Q9H422)
LCK = LCK (Homo sapiens, UniProt P06239)
Chain of LCK (P06239 whole entry): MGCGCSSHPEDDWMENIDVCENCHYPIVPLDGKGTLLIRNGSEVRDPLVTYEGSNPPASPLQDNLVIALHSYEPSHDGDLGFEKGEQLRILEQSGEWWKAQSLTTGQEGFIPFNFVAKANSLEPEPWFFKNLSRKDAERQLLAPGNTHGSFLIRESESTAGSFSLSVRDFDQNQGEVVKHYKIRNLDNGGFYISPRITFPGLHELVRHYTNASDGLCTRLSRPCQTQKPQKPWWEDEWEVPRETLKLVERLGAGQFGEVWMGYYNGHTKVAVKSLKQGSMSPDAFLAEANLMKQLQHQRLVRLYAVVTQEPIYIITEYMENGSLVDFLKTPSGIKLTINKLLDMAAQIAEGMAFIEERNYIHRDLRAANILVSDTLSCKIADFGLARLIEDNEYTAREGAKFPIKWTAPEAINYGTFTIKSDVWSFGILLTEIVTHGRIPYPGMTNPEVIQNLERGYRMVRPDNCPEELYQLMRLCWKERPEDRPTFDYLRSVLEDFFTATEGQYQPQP

MAP2K6 = MAP2K6 (Homo sapiens, UniProt P52564)
Chain of MAP2K6 (P52564 whole entry): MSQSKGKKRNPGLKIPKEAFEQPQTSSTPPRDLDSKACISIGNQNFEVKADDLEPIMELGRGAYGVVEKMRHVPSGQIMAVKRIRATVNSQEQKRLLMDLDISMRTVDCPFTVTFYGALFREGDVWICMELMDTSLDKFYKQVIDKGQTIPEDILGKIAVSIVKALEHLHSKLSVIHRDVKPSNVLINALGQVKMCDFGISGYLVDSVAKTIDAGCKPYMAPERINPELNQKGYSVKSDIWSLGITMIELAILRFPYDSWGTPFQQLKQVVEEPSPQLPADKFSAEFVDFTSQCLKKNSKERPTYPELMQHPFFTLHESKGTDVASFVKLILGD

MARK2 = MARK2 (Homo sapiens, UniProt Q7KZI7)
Chain of MARK2 (Q7KZI7 whole entry): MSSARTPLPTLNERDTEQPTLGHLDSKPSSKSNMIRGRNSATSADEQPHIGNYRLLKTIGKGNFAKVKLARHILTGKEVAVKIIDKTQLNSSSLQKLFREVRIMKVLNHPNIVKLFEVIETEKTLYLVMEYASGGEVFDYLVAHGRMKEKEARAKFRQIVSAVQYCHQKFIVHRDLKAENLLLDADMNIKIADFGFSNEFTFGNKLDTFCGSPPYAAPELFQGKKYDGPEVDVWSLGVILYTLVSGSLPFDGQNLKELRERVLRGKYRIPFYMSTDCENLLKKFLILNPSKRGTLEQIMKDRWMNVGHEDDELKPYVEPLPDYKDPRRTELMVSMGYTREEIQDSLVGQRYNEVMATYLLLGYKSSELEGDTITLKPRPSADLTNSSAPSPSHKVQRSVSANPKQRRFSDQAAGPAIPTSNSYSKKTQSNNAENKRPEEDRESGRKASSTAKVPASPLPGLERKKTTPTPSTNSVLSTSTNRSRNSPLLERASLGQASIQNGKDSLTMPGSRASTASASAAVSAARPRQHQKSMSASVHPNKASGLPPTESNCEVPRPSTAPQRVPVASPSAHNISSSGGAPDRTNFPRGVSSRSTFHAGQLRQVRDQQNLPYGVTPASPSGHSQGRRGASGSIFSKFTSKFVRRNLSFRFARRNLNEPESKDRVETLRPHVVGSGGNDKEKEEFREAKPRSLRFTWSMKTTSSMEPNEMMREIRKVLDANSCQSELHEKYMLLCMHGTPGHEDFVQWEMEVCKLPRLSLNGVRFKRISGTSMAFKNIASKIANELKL

MASTL = MASTL (Homo sapiens, UniProt Q96GX5)
Chain of MASTL (Q96GX5 whole entry): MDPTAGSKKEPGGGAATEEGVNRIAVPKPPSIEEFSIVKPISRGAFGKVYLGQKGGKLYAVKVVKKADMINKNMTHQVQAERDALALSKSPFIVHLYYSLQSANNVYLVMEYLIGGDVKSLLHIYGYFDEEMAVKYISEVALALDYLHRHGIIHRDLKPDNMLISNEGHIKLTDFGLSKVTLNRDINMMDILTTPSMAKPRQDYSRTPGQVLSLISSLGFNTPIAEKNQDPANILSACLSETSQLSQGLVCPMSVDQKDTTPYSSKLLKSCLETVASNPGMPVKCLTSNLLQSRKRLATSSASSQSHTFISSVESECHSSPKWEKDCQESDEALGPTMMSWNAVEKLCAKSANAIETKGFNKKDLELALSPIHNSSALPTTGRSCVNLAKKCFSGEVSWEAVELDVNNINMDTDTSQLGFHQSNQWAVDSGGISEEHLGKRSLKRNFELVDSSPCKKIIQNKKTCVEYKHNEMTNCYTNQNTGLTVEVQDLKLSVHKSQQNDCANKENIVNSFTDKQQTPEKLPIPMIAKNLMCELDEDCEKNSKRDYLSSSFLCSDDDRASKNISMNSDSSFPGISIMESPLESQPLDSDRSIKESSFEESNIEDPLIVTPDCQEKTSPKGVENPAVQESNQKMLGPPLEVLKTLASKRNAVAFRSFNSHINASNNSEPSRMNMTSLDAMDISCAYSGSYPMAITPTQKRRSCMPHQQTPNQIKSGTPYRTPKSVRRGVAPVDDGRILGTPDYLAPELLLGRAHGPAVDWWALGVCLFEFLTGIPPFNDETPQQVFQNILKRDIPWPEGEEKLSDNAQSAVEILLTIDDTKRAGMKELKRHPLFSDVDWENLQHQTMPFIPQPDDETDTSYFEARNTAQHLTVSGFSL

MINK1 = MINK1 (Homo sapiens, UniProt Q8N4C8)
NEK2 = NEK2 (Homo sapiens, UniProt P51955)
PHKG2 = PHKG2 (Homo sapiens, UniProt P15735)
PRKCB = PRKCB (Homo sapiens, UniProt P05771)
PRKD1 = PRKD1 (Homo sapiens, UniProt Q15139)
RIPK2 = RIPK2 (Homo sapiens, UniProt O43353)
Chain of RIPK2 (O43353 whole entry): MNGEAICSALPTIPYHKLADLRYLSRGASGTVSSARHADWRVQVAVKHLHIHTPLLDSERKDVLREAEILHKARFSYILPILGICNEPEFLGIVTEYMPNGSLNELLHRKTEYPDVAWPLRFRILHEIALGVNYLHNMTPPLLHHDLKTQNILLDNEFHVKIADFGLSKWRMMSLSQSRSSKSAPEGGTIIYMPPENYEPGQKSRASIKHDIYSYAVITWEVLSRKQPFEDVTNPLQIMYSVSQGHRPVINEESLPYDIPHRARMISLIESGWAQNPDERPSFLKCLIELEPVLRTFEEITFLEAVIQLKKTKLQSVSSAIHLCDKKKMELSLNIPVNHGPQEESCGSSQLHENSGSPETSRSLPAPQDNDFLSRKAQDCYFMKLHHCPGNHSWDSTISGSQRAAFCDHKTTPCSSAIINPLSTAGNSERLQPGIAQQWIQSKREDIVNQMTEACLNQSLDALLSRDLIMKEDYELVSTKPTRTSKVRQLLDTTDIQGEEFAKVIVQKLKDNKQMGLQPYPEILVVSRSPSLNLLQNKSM

RPS6KA1 = RPS6KA1 (Homo sapiens, UniProt Q15418)
RPS6KA2 = RPS6KA2 (Homo sapiens, UniProt Q15349)
Chain of RPS6KA2 (Q15349 whole entry): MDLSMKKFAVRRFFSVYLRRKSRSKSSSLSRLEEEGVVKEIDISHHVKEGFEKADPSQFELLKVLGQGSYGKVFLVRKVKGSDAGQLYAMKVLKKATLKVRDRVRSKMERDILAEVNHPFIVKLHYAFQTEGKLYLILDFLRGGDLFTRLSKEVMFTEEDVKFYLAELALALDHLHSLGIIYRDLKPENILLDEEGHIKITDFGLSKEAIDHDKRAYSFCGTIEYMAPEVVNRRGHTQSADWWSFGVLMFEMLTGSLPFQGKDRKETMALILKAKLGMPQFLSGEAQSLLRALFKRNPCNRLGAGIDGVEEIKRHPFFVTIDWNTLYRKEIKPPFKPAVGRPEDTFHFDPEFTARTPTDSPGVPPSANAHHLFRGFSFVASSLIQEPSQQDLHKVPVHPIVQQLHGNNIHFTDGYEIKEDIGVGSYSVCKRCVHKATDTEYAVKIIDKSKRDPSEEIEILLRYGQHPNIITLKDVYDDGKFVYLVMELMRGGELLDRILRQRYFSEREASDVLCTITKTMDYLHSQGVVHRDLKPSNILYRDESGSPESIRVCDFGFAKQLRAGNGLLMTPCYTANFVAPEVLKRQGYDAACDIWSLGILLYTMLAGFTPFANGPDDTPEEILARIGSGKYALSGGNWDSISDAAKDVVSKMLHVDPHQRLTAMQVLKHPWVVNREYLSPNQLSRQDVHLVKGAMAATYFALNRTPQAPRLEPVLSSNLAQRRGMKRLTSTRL

SIK2 = SIK2 (Homo sapiens, UniProt Q9H0K1)
STK17A = STK17A (Homo sapiens, UniProt Q9UEE5)
Chain of STK17A (Q9UEE5 whole entry): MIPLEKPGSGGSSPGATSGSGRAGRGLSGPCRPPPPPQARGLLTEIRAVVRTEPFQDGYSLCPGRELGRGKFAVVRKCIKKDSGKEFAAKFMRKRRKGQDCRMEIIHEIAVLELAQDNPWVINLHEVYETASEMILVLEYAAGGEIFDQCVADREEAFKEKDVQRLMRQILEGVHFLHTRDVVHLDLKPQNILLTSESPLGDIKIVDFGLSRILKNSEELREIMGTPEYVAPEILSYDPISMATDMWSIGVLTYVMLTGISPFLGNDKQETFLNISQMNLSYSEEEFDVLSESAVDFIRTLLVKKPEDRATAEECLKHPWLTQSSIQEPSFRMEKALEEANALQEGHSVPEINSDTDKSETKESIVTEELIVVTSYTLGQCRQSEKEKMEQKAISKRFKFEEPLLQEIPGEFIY

STK4 = STK4 (Homo sapiens, UniProt Q13043)
Chain of STK4 (Q13043 whole entry): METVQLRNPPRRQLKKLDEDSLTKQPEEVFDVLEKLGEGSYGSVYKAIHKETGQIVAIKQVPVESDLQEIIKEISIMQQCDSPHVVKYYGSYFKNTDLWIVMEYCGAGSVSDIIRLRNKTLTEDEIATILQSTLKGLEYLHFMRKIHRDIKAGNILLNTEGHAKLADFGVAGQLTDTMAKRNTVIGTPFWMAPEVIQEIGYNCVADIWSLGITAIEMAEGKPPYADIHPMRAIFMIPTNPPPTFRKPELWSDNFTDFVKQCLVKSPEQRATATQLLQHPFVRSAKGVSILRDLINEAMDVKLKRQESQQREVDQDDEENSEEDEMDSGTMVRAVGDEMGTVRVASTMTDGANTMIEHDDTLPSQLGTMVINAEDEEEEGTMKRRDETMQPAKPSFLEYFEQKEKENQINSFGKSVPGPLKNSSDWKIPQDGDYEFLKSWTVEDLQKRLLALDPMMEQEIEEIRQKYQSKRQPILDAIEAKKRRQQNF

TEC = TEC (Homo sapiens, UniProt P42680)
mTOR = mTOR (Homo sapiens, UniProt P42345)

- IC50 (BTK): ≥ 20 µM
- IC50 (DDR2): ≥ 20 µM
- IC50 (EPHB3): ≥ 20 µM
- IC50 (HIPK3): ≥ 20 µM
- IC50 (LCK): ≥ 20 µM
- IC50 (MAP2K6): ≥ 20 µM
- IC50 (MARK2): ≥ 20 µM
- IC50 (MASTL): ≥ 20 µM
- IC50 (MINK1): ≥ 20 µM
- IC50 (NEK2): ≥ 20 µM
- IC50 (PHKG2): ≥ 20 µM
- IC50 (PRKCB): ≥ 20 µM
- IC50 (PRKD1): ≥ 20 µM
- IC50 (RIPK2): ≥ 20 µM
- IC50 (RPS6KA1): ≥ 20 µM
- IC50 (RPS6KA2): ≥ 20 µM
- IC50 (SIK2): ≥ 20 µM
- IC50 (STK17A): ≥ 20 µM
- IC50 (STK4): ≥ 20 µM
- IC50 (TEC): ≥ 20 µM
- IC50 (mTOR): ≥ 20 µM
Compound: COc1ccccc1-c1n[nH]c2nc(N[C@H]3CC[C@H](NS(=O)(=O)CCC(F)(F)F)CC3)nc(OC)c12 [compound 31, 3,3,3-Trifluoro-N-(trans-4-((4-methoxy-3-(2-methoxyphenyl)-1H-pyrazolo[3,4-d]pyrimidin-6-yl)amino)cyclohexyl)propane-1-sulfonamide]
